Test results from patent US11957680B2, “Pyruvate kinase activators for use in treating blood disorders” (Agios Pharmaceuticals, Inc., priority 2017, dated 2024).

Experiments:
wild type PKR [1] = molecular target: T1, wild type PKR (Homo sapiens, UniProt P30613); test: Cell based ATP assay in purified red blood cells (Cell-Titer-Glo); parameters: endogenous in cells; host or cells: purified red blood cells from healthy volunteers; details: Table 2; RBCs, overnight at 37° C., ATP levels
How it was run: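 RBCs from healthy human donors' K2EDTA blood were leukocyte-depleted by filtration and resuspended in AGAM (PBS, 1% glucose, adenine, mannitol). Cells at 1×10^7 cells/mL were incubated overnight at 37 °C with serially diluted compound at 0.1% DMSO, and ATP was read by Cell-Titer-Glo luminescence.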

PKR R510Q = PKR R510Q (Homo sapiens, UniProt P30613, R510Q); test: PKR mutant assay (R510Q), AC50, LDH/NADH-coupled, absorbance at 340 nm; format: biochemical; details: Table 2, enzyme assay; for AC50: read-out: PK R510Q AC50
PKR R510Q, sequence (P30613 whole entry R510Q): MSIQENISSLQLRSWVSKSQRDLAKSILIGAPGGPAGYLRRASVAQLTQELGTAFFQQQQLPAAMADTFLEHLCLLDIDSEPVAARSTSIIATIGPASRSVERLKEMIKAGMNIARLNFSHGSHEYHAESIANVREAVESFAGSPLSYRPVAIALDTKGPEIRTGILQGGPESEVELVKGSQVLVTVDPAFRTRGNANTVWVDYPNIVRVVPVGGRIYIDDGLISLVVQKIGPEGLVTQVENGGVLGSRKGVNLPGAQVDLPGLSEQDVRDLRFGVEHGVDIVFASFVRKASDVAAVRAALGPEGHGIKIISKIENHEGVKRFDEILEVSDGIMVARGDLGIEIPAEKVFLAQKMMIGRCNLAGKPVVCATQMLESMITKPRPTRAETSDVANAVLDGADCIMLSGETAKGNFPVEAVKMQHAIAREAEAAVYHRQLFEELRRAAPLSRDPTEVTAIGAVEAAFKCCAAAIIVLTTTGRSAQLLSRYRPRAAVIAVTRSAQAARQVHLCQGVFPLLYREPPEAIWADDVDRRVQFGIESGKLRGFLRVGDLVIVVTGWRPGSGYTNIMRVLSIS
How it was run: (§1)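 Wild-type or mutant PKR (40-400 ng/well) was preincubated with compound for 60 min at room temperature in 100 mM KCl, 50 mM Tris pH 7.5, 5 mM MgCl2, 1 mM DTT, 0.03% BSA with PEP (0.1-0.5 mM), 180 μM NADH and 0.5 units LDH. ADP (0.2-1.65 mM) started the reaction, followed at 340 nm.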

PKR K410E = PKR K410E (Homo sapiens, UniProt P30613, K410E); test: PKR mutant assay (K410E), AC50, LDH/NADH-coupled, absorbance at 340 nm; format: biochemical; details: Table 2; enzyme assay
PKR K410E, sequence (P30613 whole entry K410E): as the sequence (P30613 whole entry R510Q) above, with K410E, Q510R counted along it
How it was run: as §1

wild type PKR [2] = molecular target: T1, wild type PKR; test: PKR (wild type) enzyme AC50 assay, LDH/NADH-coupled, absorbance at 340 nm; format: biochemical; details: Table 2, enzyme assay; for AC50: read-out: PKR WT AC50
How it was run: as §1

T1 sequence (P30613 whole entry): as the sequence (P30613 whole entry R510Q) above, with Q510R counted along it

| Structure (SMILES) | AC50 (wild type PKR [1]) [nM] | AC50 (PKR R510Q) [nM] | AC50 (PKR K410E) [nM] | AC50 (wild type PKR [2]) [nM] | Cell based ATP assay AC50 (wild type PKR [1]) | PKR WT AC50 (wild type PKR [2]) | PK R510Q AC50 (PKR R510Q) |
| --- | --- | --- | --- | --- | --- | --- | --- |
| Cn1c2nc([S+](C)[O-])sc2c2cnn(Cc3cnc(N)s3)c(=O)c21 (stereo not drawn) [Compound 101] | > 1000 | > 800 | > 800 | > 800 | – | – | – |
| Cn1c2nc([S+](C)[O-])sc2c2cnn(Cc3ccc4ccccc4n3)c(=O)c21 (stereo not drawn) [Compound 102] | ≤ 1000 | < 300 | < 300 | < 300 | – | – | – |
| CNc1cccc(Cc2nc3c(s2)c2cnn(Cc4cccc5[nH]ncc45)c(=O)c2n3C)c1 [Compound 103] | ≤ 1000 | < 300 | < 300 | < 300 | – | – | – |
| C=Cc1nc2c(s1)c1cnn(Cc3cccc4[nH]ncc34)c(=O)c1n2C [Compound 104] | > 1000 | < 300 | > 800 | < 300 | – | – | – |
| Cn1c2nc(CO)sc2c2cnn(Cc3cccc4[nH]ncc34)c(=O)c21 [Compound 105] | ≤ 1000 | < 300 | < 300 | < 300 | – | – | – |
| CC(O)c1nc2c(s1)c1cnn(Cc3cccc4[nH]ncc34)c(=O)c1n2C (stereo not drawn) [Compound 106] | ≤ 1000 | < 300 | < 300 | < 300 | – | – | – |
| CSc1nc2c(s1)c1cnn(Cc3cn4cccnc4n3)c(=O)c1n2C [Compound 107] | – | > 800 | > 800 | – | No Fit | No Fit | – |
| COc1cccc(Cn2ncc3c4sc(C(F)(F)c5ccccc5)nc4n(C)c3c2=O)c1 [Compound 108] | ≤ 1000 | < 300 | < 300 | < 300 | – | – | – |
| CNc1ccc(Cc2nc3c(s2)c2cnn(Cc4cccc5[nH]ncc45)c(=O)c2n3C)cc1 [Compound 109] | ≤ 1000 | < 300 | < 300 | < 300 | – | – | – |
| CSc1nc2c(s1)c1cnn(Cc3cccc(S(N)(=O)=O)c3)c(=O)c1n2C [Compound 110] | – | > 800 | > 800 | > 800 | No Fit | – | – |
| Cn1c2nc(Cc3cc[nH]n3)sc2c2cnn(Cc3ccc4ccccc4n3)c(=O)c21 [Compound 111] | ≤ 1000 | < 300 | < 300 | < 300 | – | – | – |
| Cn1c2nc(Cc3ccc(C(N)=O)cc3)sc2c2cnn(Cc3cccc4[nH]ncc34)c(=O)c21 [Compound 112] | > 1000 | > 800 | > 800 | > 800 | – | – | – |
| COC(=O)C(C(=O)OC)c1nc2c(s1)c1cnn(Cc3cccc4[nH]ncc34)c(=O)c1n2C [Compound 113] | > 1000 | > 800 | > 800 | > 800 | – | – | – |
| CSc1nc2c(s1)c1cnn(Cc3cccc4sc(N)nc34)c(=O)c1n2C [Compound 114] | – | < 300 | < 300 | < 300 | No Fit | – | – |
| CSc1nc2c(s1)c1cnn(Cc3ccc(S(N)(=O)=O)cc3)c(=O)c1n2C [Compound 116] | – | > 800 | > 800 | > 800 | No Fit | – | – |
| Cn1c2nc(C(O)c3ccccc3)sc2c2cnn(Cc3cccc4[nH]ncc34)c(=O)c21 (stereo not drawn) [Compound 117] | > 1000 | 301 to 800 | < 300 | < 300 | – | – | – |
| Cn1c2nc(Cc3cccc(CO)c3)sc2c2cnn(Cc3cccc4[nH]ncc34)c(=O)c21 [Compound 118] | > 1000 | < 300 | < 300 | < 300 | – | – | – |
| CC(c1ccccc1)c1nc2c(s1)c1cnn(Cc3cccc4[nH]ncc34)c(=O)c1n2C (stereo not drawn) [Compound 119] | ≤ 1000 | < 300 | < 300 | < 300 | – | – | – |

| Structure (SMILES) | AC50 (wild type PKR [1]) [nM] | AC50 (PKR R510Q) [nM] | AC50 (PKR K410E) [nM] | AC50 (wild type PKR [2]) [nM] | Cell based ATP assay AC50 (wild type PKR [1]) | PKR WT AC50 (wild type PKR [2]) | PK R510Q AC50 (PKR R510Q) |
| --- | --- | --- | --- | --- | --- | --- | --- |
| CC(c1ccccc1)c1nc2c(s1)c1cnn(Cc3cccc4c3cnn4C)c(=O)c1n2C (stereo not drawn) [Compound 120] | ≤ 1000 | 301 to 800 | 301 to 800 | 301 to 800 | – | – | – |
| Cn1c2nc(SCc3ccccc3)sc2c2cnn(Cc3cccc4[nH]ncc34)c(=O)c21 [Compound 121] | > 1000 | 301 to 800 | > 800 | 301 to 800 | – | – | – |
| Cn1c2nc(Cc3cc[nH]n3)sc2c2cnn(Cc3ccc4c(c3)OCCO4)c(=O)c21 [Compound 122] | ≤ 1000 | < 300 | < 300 | < 300 | – | – | – |
| COc1ccc(Cn2ncc3c4sc(Cc5cc[nH]n5)nc4n(C)c3c2=O)cc1 [Compound 123] | ≤ 1000 | < 300 | < 300 | < 300 | – | – | – |
| Cn1c2nc(CCO)sc2c2cnn(Cc3cccc4[nH]ncc34)c(=O)c21 [Compound 124] | ≤ 1000 | < 300 | < 300 | < 300 | – | – | – |
| CNCc1nc2c(s1)c1cnn(Cc3cccc4[nH]ncc34)c(=O)c1n2C [Compound 125] | > 1000 | 301 to 800 | > 800 | > 800 | – | – | – |
| Cn1c2nc(C(C)(O)c3ccccc3)sc2c2cnn(Cc3cccc4[nH]ncc34)c(=O)c21 (stereo not drawn) [Compound 126] | ≤ 1000 | < 300 | < 300 | < 300 | – | – | – |
| Cn1c2nc(C(C(N)=O)c3ccccc3)sc2c2cnn(Cc3cccc4[nH]ncc34)c(=O)c21 (stereo not drawn) [Compound 127] | ≤ 1000 | < 300 | < 300 | < 300 | – | – | – |
| Cn1c2nc(S(=O)(=O)Cc3ccccc3)sc2c2cnn(Cc3cccc4[nH]ncc34)c(=O)c21 [Compound 128] | > 1000 | 301 to 800 | 301 to 800 | < 300 | – | – | – |
| CSc1nc2c(s1)c1cnn(Cc3csc(-n4c(C)ccc4C)n3)c(=O)c1n2C [Compound 129] | > 1000 | > 800 | > 800 | > 800 | – | – | – |
| Cn1c2nc(C(O)c3ccccn3)sc2c2cnn(Cc3cccc4[nH]ncc34)c(=O)c21 (stereo not drawn) [Compound 130] | ≤ 1000 | 301 to 800 | > 800 | > 800 | – | – | – |
| COC(=O)Cc1nc2c(s1)c1cnn(Cc3cccc4[nH]ncc34)c(=O)c1n2C [Compound 131] | > 1000 | < 300 | < 300 | 301 to 800 | – | – | – |
| Cn1c2nc(CN)sc2c2cnn(Cc3cccc4[nH]ncc34)c(=O)c21 [Compound 132] | > 1000 | 301 to 800 | 301 to 800 | > 800 | – | – | – |
| Cn1c2nc(C(c3cccc4[nH]ncc34)S(=O)(=O)c3ccccc3)sc2c2cnn(Cc3cccc4[nH]ncc34)c(=O)c21 (stereo not drawn) [Compound 133] | > 1000 | > 800 | > 800 | > 800 | – | – | – |
| COC(=O)C(c1ccccc1)c1nc2c(s1)c1cnn(Cc3cccc4[nH]ncc34)c(=O)c1n2C (stereo not drawn) [Compound 134] | > 1000 | 301 to 800 | < 300 | > 800 | – | – | – |
| Cn1c2nc(Nc3ccccc3)sc2c2cnn(Cc3cccc4[nH]ncc34)c(=O)c21 [Compound 135] | – | – | > 800 | > 800 | No Fit | – | No Fit |
| Cn1c2nc(C(N)c3ccccc3)sc2c2cnn(Cc3cccc4[nH]ncc34)c(=O)c21 (stereo not drawn) [Compound 136] | ≤ 1000 | < 300 | < 300 | < 300 | – | – | – |
| Cn1c2nc(CC(N)=O)sc2c2cnn(Cc3cccc4[nH]ncc34)c(=O)c21 [Compound 137] | > 1000 | < 300 | < 300 | 301 to 800 | – | – | – |
